Test results from ChEMBL document CHEMBL1131462, “Quantitative analysis of the structural requirements for blockade of the N-methyl-D-aspartate receptor at the phencyclidine binding site” (J Med Chem, 1998).

Molecular target: Glutamate [NMDA] receptor
Assay: The compound was tested for its ability to block PCP N-methyl-D-aspartate glutamate receptor at the PCP (phencyclidine) binding site in postmortem human frontal cortex.

Structure (SMILES) | Ki [µM]
Cc1ccccc1C(OCCN(C)C)c1ccccc1 (stereo not drawn) [ORPHENADRINE] | 6
CCC12CC3CC(N)(C1)CC(c1ccccc1)(C3)C2 (stereo not drawn) | 4.08
NCC12CC3CC(CC(C3)C1)C2 | 33.3
NCCC12CC3CC(CC(C3)C1)C2 | 3.8
CCNC12CC3CC(C)(CC(C)(C3)C1)C2 | 1.72
COc1ccc2c(c1)[C@]13CCCC[C@@H]1[C@H](C2)N(C)CC3 [DEXTROMETHORPHAN] | 1.68
c1ccc(C2(N3CCCCC3)CCCCC2)cc1 [PHENCYCLIDINE] | 0.023
NC12CC3CC(CC(C3)C1)C2 [AMANTADINE] | 10.5
CN(C)C12CC3CC(CC(C3)C1)C2 | 20.8
CN(C)C12CC3CC(C)(CC(C)(C3)C1)C2 | 4.44
CCC12CC3CC(N)(C1)CC(CC)(C3)C2 | 0.19
CC(C)(C)N1CCC(c2ccccc2)(c2ccccc2)CC1 [BUDIPINE] | 11.7
CN1CC[C@@]23CCCC[C@@H]2[C@@H]1Cc1ccc(O)cc13 [DEXTRORPHAN] | 0.22
NCCCCC12CC3CC(CC(C3)C1)C2 | 17.4
CNC1(c2ccccc2Cl)CCCCC1=O (racemic) [KETAMINE] | 0.42
CNC12CC3CC(C)(CC(C)(C3)C1)C2 | 1.61
CNC12CC3CC(CC(C3)C1)C2 | 21.7
CC(C)C12CC3CC(CC(N)(C3)C1)C2 | 7.21
OC(CCN1CCCC1)(c1ccccc1)C1CCCCC1 (racemic) [PROCYCLIDINE] | 1.7
NCCCC12CC3CC(CC(C3)C1)C2 | 9.5
CCC12CC3CC(CC(N)(C3)C1)C2 | 0.6
CC12CC3CC(C)(C1)CC(CCN)(C3)C2 | 0.79
NC12CC3CC(C1)CC(c1ccccc1)(C3)C2 | 15.2
